Test results as given in patent US20240246960A1 (adMare Therapeutics Society, priority 2021, published 2024).
Where two headings read alike, the source gives them in different places.

Assays:
[1] = target: T1, DNA-PK phosphorylation at Serine 2056 (Homo sapiens, UniProt P78527); assay: Cellular Assay for Inhibition of DNA-PK Phosphorylation at Serine 2056 (FaDu cells, neocarzinostatin, sandwich ELISA); format: cell-based; conditions: Table 1
T1 construct: host or cells: FaDu
Procedure, shortened: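 Readout was pSer2056 and total DNA-PK, measured by sandwich ELISA on protein-normalized lysates. Prior to lysis, compound was applied to FaDu cells for 1 h (0.3% DMSO), followed by 2 h of 1 μg/mL neocarzinostatin. IC50 values were fitted from log concentration versus % inhibition normalized to DMSO and NCS controls.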

[2] = target: T2, pDNA-PK ser2056 induction in HCT116 spheroids (Homo sapiens, UniProt P78527); assay: Multicellular tumour spheroid + radiation, pDNA-PK inhibition, HCT116; format: cell-based; conditions: 20 Gy
T2 construct: endogenous in cells; host or cells: HCT116 multicellular tumour spheroids
Procedure, shortened: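 EC50 (μM) is concentration halving radiation-induced pDNA-PK ser2056, scored by fluorescent immunostaining of cryosections 2 h after 20 Gy. HCT116 tumour spheroids (~0.5 mm, stirred, 20% O2/5% CO2, 37 °C) exposed to serial dilutions from 10 or 5 μM to 3.5 nM starting 1 h before irradiation.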

[3] = Example 7, spheroid, cell line HCT115 [sic], 20% O2, read-out: EC50 (pDNA-PK inhibition, immunohistochemical endpoint)
[4] = Example 8, spheroid, read-out: Cell line: HCT116 Immunohistochemical endpoint pDNA-PK inhibition EC50
[5] = Example 9 Study 2, 20% O2, read-out: Spheroid Cell line: HCT116 Immunohistochemical endpoint pDNA-PK inhibition EC50

| Structure (SMILES) | IC50 [1] | EC50 [2, 3] | EC50 [2, 4] | EC50 [2, 5] |
| --- | --- | --- | --- | --- |
| O=C(N[C@H]1CC[C@@H](Oc2nc(N3CCOCC3)cc3ncccc23)CC1)c1nccs1 [Compound 135, N-((1s,4s)-4-((7-morpholino-1,6-naphthyridin-5-yl)oxy)cyclohexyl)thiazole-2-carboxamide] | 100 to 1000 nM | 1000 to 10000 nM | – | 1000 to 10000 nM |
| O=C(N[C@H]1CC[C@@H](Oc2nc(N3CCOCC3)cc3ncccc23)CC1)c1cc[nH]c1 [Compound 140, N-((1s,4s)-4-((7-morpholino-1,6-naphthyridin-5-yl)oxy)cyclohexyl)-1H-pyrrole-3-carboxamide] | < 100 nM | 10 to 500 nM | – | 10 to 500 nM |
| O=C(N[C@H]1CC[C@@H](Oc2nc(N3CCOCC3)cc3ncccc23)CC1)c1ncco1 [Compound 142, N-((1s,4s)-4-((7-morpholino-1,6-naphthyridin-5-yl)oxy)cyclohexyl)oxazole-2-carboxamide] | < 100 nM | 1000 to 10000 nM | – | 1000 to 10000 nM |
| CS(=O)(=O)Nc1cnc2cc(N3CCOCC3)nc(O[C@H]3CC[C@@H](Nc4ncccn4)CC3)c2c1 [Compound 185, N-(7-morpholino-5-(((1s,4s)-4-(pyrimidin-2-ylamino)cyclohexyl)oxy)-1,6-naphthyridin-3-yl)methanesulfonamide] | < 100 nM | 10 to 500 nM | – | 10 to 500 nM |
| COc1cnc(N[C@H]2CC[C@@H](Oc3nc(N4CCOCC4)cc4ncc(NS(C)(=O)=O)cc34)CC2)nc1 [Compound 203, N-(5-(((1s,4s)-4-((5-methoxypyrimidin-2-yl)amino)cyclohexyl)oxy)-7-morpholino-1,6-naphthyridin-3-yl)methanesulfonamide] | < 100 nM | 10 to 500 nM | – | 10 to 500 nM |

More lines, now with the values ahead:

| IC50 [1] | EC50 [2, 3] | EC50 [2, 4] | EC50 [2, 5] | Structure (SMILES) |
| --- | --- | --- | --- | --- |
| 100 to 1000 nM | 1000 to 10000 nM | 1000 to 10000 nM | 1000 to 10000 nM | O=C(N[C@H]1CC[C@@H](Oc2nc(N3CCOCC3)cc3ncccc23)CC1)c1ccc(C(F)(F)F)o1 [Compound 133, N-((1s,4s)-4-((7-Morpholino-1,6-naphthyridin-5-yl)oxy)cyclohexyl)-5-(trifluoromethyl)furan-2-carboxamide] |
| < 100 nM | 1000 to 10000 nM | – | 1000 to 10000 nM | O=C(N[C@H]1CC[C@@H](Oc2nc(N3CCOCC3)cc3ncccc23)CC1)c1c[nH]cn1 [Compound 144, N-((1s,4s)-4-((7-morpholino-1,6-naphthyridin-5-yl)oxy)cyclohexyl)-1H-imidazole-4-carboxamide] |
| 100 to 1000 nM | 1000 to 10000 nM | 1000 to 10000 nM | 1000 to 10000 nM | CS(=O)(=O)Nc1cnc2cc(N3CCOCC3)nc(O[C@H]3CC[C@@H](n4ccnc4)CC3)c2c1 [Compound 161, N-(5-(((1s,4s)-4-(1H-imidazol-1-yl)cyclohexyl)oxy)-7-morpholino-1,6-naphthyridin-3-yl)methanesulfonamide] |
| < 100 nM | 1000 to 10000 nM | – | 1000 to 10000 nM | CS(=O)(=O)Nc1cnc2cc(N3CCOCC3)nc(O[C@H]3CC[C@@H](NC(=O)c4ncco4)CC3)c2c1 [Compound 205, N-((1s,4s)-4-((3-(methylsulfonamido)-7-morpholino-1,6-naphthyridin-5-yl)oxy)cyclohexyl)oxazole-2-carboxamide] |
